Experimental data from patent publication US20100304422A1, “In-Vitro Model of the Transformation of Metaplasia to Neoplasia” (priority 2009, published 2010).

Legend:
BAR-T cells [1] = experiment: Morphological changes; assay type: cell-based, human
Experimental: Cell line medium and cell culture—BAR-T cells were grown in special supplemented keratinocyte medium (KBM2) from Cambrex Bioscience (East Rutherford, N.J., USA), as per the protocol described by Jaiswal et al. Hydrochloric acid (A) was used to adjust the pH of the culture medium to experimental conditions. The bile acid, glycochenodeoxycholic acid, GCDA (Sigma, St. Louis, […]., USA), was diluted to optimum working concentration of 200 μM (B) with the culture medium adjusted to pH4 (A+B). 0.1×10^6 cells growing on six-well plates were incubated in A or A+B for 5 min in 24 h. For chronic exposure, cells were exposed for 5 min everyday to A only for up to 34 weeks and A+B for up to 84 weeks. No treatment was done on the day the cells were passed. The time was optimized from similar studies, showing that 5 min was sufficient for induction of signal transduction pathways regulating cellular machinery without cell damage. […] Morphological Changes and Growth analysis—BAR-T cells that were exposed to A+B at various weeks were plated at 1×10^5 cells per well in 12 well plates and counted in triplicate using a Beckman Coulter Counter (Vi-CELL1.00). Cells were counted periodically and morphological changes were examined weekly. […] Large (>1 mm) and small colonies (<1 mm) were visually identified, photographed and counted separately. […]

BAR-T cells [2] = experiment: Real-time RT-PCR mRNA expression, normalized to β actin; assay type: cell-based, human; conditions: for molecular changes (mRNA), particularly transformation marker TC22: A alone (pH4) up to 34 weeks
Experimental: Cell line medium and cell culture—BAR-T cells were grown in special supplemented keratinocyte medium (KBM2) from Cambrex Bioscience (East Rutherford, N.J., USA), as per the protocol described by Jaiswal et al. Hydrochloric acid (A) was used to adjust the pH of the culture medium to experimental conditions. The bile acid, glycochenodeoxycholic acid, GCDA (Sigma, St. Louis, […]., USA), was diluted to optimum working concentration of 200 μM (B) with the culture medium adjusted to pH4 (A+B). 0.1×10^6 cells growing on six-well plates were incubated in A or A+B for 5 min in 24 h. For chronic exposure, cells were exposed for 5 min everyday to A only for up to 34 weeks and A+B for up to 84 weeks. No treatment was done on the day the cells were passed. The time was optimized from similar studies, showing that 5 min was sufficient for induction of signal transduction pathways regulating cellular machinery without cell damage. The cells were rinsed with phosphate buffered saline (PBS) before and after incubation with desired treatment medium. The control untreated cells were grown in parallel in the special medium as mentioned above at pH7.4. A portion of the cells were harvested every 4-6 weeks. Morphological Changes and Growth analysis—BAR-T cells that were exposed to A+B at various weeks were plated at 1×10^5 cells per well in 12 well plates and counted in triplicate using a Beckman Coulter Counter (Vi-CELL1.00). Cells were counted periodically and morphological changes were examined weekly. Foci assay: Cells were plated at 5×10^5 cells per 100 mm dishes (35). Untreated cells grown in parallel were also plated. Cells were grown for 4-5 weeks with regular medium changes beyond 100% confluency, fixed with 10% methanol, 10% acetic acid solution, and stained with 20% ethanol, 0.4% crystal violet for 5 min. Growth in soft agar: Each well of the six well plates was layered with base agar layer containing 0.8% agar in grown medium. […] Large (>1 mm) and small colonies (<1 mm) were visually identified, photographed and counted separately. […]

Compound	morphological changes (BAR-T cells [1]; chronic exposure to A alone, up to 34 weeks)	molecular changes (mRNA), particularly transformation marker TC22 (BAR-T cells [2])	molecular changes (mRNA), particularly transformation marker TC22 (BAR-T cells [2]; listed as Acid (pH4))	P53 expression (BAR-T cells [2]; A alone up to 34 weeks)	effect on BAR-T cells (BAR-T cells [1]; B alone up to 6 weeks, initial study)
Cl [A, Hydrochloric acid]	did not show any morphological changes	did not show the above molecular changes	remained mostly unchanged	minor increase	
CC(CCC(=O)NCC(=O)O)C1CCC2C3C(O)CC4CC(O)CCC4(C)C3CCC12C (centres unmarked) [B, glycochenodeoxycholic acid, reference compound]					no appreciable effect
